Assay results from patent US4563453A, “Thiazine derivatives, processes for preparation thereof and pharmaceutical composition comprising the same” (Fujisawa Pharmaceutical Co., Ltd., priority 1983, dated 1986).

Legend:
Carrageenin foot edema = Carrageenin foot edema (paw edema in rats); type: in vivo, Male Sprague-Dawley rats; conditions: rat, oral, 10.0 mg/kg, 60 minutes before phlogogen; edema volume 3 hours after 1% carrageenin
Method: TEST A (Carrageenin foot edema)
Male Sprague-Dawley rats weighing about 200 g were used in groups of five. Paw edema was induced by subplantar injection of 1% carrageenin (0.1 ml/rat) into the right hind paw. The test drug was suspended in 0.5% methylcellulose and administered orally 60 minutes before phlogogen. Paw volume was measured with plethysmometer (Ugo Basil Co., Ltd.) by water displacement immersing the paw to the lateral malleolus. The difference of paw volume before and 3 hours after the phlogogen was designated as edema volume. The data was analyzed statistically by student's t-test.

Arthus foot edema = Arthus foot edema (paw edema in rats); type: in vivo, Male Sprague-Dawley rats; conditions: rat, oral, 100 mg/kg, 60 minutes before phlogogen; edema volume 3 hours after egg albumin i.v./anti egg albumin antiserum subplantar
Method: TEST B (Arthus foot edema)
Five male Sprague-Dawley rats weighing about 200 g were used per group.
Paw edema was induced by intravenous injection of egg albumin (0.5 mg/rat) and subplantar injection of anti egg albumin antiserum (0.1 ml/rat) in Arthus type foot edema. The test drug was suspended in methylcellulose and administered orally 60 minutes before phlogogen. Paw volume was measured with plethysmometer (Ugo Basil Co., Ltd.) by water displacement immersing the paw to the lateral malleolus. The difference of paw volume before and 3 hours after the phlogogen was designated as edema volume. The data were analyzed statistically by student's t-test.

Row | SMILES | Inhibition (%) (Carrageenin foot edema) | Inhibition (%) (Arthus foot edema)
1 | CN1C(C(=O)Nc2cccccc2=O)=C(O)c2sccc2S1(=O)=O [(a), 4-Hydroxy-2-methyl-N-(1-oxo-2,4,6-cycloheptatrien-2-yl)-2H-thieno[2,3-e]-1,2-thiazine-3-carboxamide 1,1-dioxide] | 63.6 | –
2 | CN1C(C(=O)Nc2ccc(O)c(=O)cc2)=C(O)c2sccc2S1(=O)=O [4-Hydroxy-2-methyl-N-(2-hydroxy-1-oxo-2,4,6-cycloheptatrien-5-yl)-2H-thieno[2,3-e]-1,2-thiazine-3-carboxamide 1,1-dioxide] | – | 37.8
3 | CN1C(C(=O)Nc2cccccc2=O)=C(O)c2sc3ccccc3c2S1(=O)=O [(b), 4-Hydroxy-2-methyl-N-(1-oxo-2,4,6-cycloheptatrien-2-yl)-2H-[1]benzothieno[2,3-e]-1,2-thiazine-3-carboxamide 1,1-dioxide] | 34 | –
